Experimental data reported in US20240417405A1, “Substituted Spiro Derivatives” (Janssen Pharmaceutica NV, priority 2021, published 2024).
pIC50: −log10 of the molar value.

How the values were obtained:
[1] = target: T1, menin/MLL (terbium chelate-labeled menin, FITC-MBM1 peptide) (Homo sapiens, UniProt O00255, T541A); assay: Menin/MLL homogenous time-resolved fluorescence (HTRF) assay; format: binding; details: 30 min incubation
T1 construct: Menin (a.a 1-610-6xhis tag)
T1 sequence (O00255 with tags, fused parts or gaps T541A): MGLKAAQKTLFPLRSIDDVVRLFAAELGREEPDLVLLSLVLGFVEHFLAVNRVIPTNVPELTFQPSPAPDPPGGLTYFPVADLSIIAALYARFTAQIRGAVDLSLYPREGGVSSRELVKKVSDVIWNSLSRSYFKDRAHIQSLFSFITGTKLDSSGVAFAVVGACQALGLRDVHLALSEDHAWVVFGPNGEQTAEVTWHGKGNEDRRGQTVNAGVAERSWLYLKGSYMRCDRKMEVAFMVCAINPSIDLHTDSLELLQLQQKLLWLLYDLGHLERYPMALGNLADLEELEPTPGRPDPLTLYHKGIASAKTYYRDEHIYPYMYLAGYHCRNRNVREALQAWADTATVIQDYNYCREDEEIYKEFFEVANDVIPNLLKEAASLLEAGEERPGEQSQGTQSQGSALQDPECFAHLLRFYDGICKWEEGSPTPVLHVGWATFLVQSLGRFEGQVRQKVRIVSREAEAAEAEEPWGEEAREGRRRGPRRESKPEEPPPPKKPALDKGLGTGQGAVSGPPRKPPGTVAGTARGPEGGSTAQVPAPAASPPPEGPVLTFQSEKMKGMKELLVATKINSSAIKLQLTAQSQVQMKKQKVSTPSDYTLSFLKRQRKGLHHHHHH
Method in brief: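 Read-out: TR-FRET ratio (FITC 520 nm / terbium 490 nm, ex. 337 nm) after 15 min with 75 nM FITC-MBM1 peptide. Test compound first sat 30 min with 200 pM Tb-menin 1-610-His, 0.5% DMSO, pH 7.5 Tris buffer. IC50 by Hill fit; values under 0.1 nM reported as 0.1 nM.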

MOLM14 cells = assay: Proliferation assay, spheroid-like growth, MOLM14 (MLL-AF9 rearranged); format: cell-based, human; details: Homo sapiens, MOLM-14, 192 h, 8 days, confluence as measure of spheroid size, read-out: spheroid assay_OneTime MOLM14 IC50
Method in brief: (§1)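 MOLM14 (MLL-AF9) or KO-52 (MLL wildtype) cells were grown in ultra-low attachment round-bottom wells with compound (0.3% DMSO) for 8 days at 37 °C. Spheroid confluence was imaged live on day 8, normalized to DMSO and a high-dose reference/staurosporin control, and absolute IC50 fitted with variable slope.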

KO-52 cells = assay: Proliferation assay, spheroid-like growth, KO-52 (MLL wildtype control cell line); format: cell-based, human; details: Homo sapiens, 192 h, KO-52 control cells, 8 days, confluence as measure of spheroid size; read-out: spheroid assay_OneTime KO-52 IC50
Method in brief: as §1

pIC50 [1]	pIC50 (MOLM14 cells)	SMILES	pIC50 (KO-52 cells)
10.00	8.00	CC(C)[C@H]([C@H]1C[C@@H](NC(=O)CCN(C)C)C1)N1CC2(CCN(c3ncnnc3Oc3ccc(F)cc3-c3cncnc3C3CC3)C2)C1 (single isomer, unassigned) [Compound 297]	4.97
10.00	8.22	CC(C)[C@H]([C@H]1C[C@@H](NC(=O)CC#N)C1)N1CC2(CCN(c3ncnnc3Oc3ccc(F)cc3-c3cncnc3C3CC3)C2)C1 (single isomer, unassigned) [Compound 298]	5.03
9.70	7.47	COCC(=O)N[C@H]1C[C@@H]([C@@H](C(C)C)N2CC3(CCN(c4ncnnc4Oc4ccc(F)cc4-c4cncnc4C4CC4)C3)C2)C1 (single isomer, unassigned) [Compound 299]	5.08
9.52	6.77	CC(C)[C@H]([C@H]1C[C@@H](NC(=O)C(C)(C)C)C1)N1CC2(CCN(c3ncnnc3Oc3ccc(F)cc3-c3cncnc3C3CC3)C2)C1 (single isomer, unassigned) [Compound 300]	5.09
9.70	7.48	CC(C)[C@H]([C@H]1C[C@@H](NC(=O)C2(F)CC2)C1)N1CC2(CCN(c3ncnnc3Oc3ccc(F)cc3-c3cncnc3C3CC3)C2)C1 (single isomer, unassigned) [Compound 301]	5.60
9.52	8.15	CC(C)[C@H]([C@H]1C[C@@H](NC(=O)C2CC2)C1)N1CC2(CCN(c3ncnnc3Oc3ccc(F)cc3-c3cncnc3C3CC3)C2)C1 (single isomer, unassigned) [Compound 303]	5.34
10.00	7.49	CC(C)[C@H]([C@H]1C[C@@H](NC(=O)C2CC2)C1)N1CC2(CCN(c3ncnnc3Oc3ccc(F)cc3-c3nnccc3C3CC3)C2)C1 (single isomer, unassigned) [Compound 304]	4.92
9.70	7.77	CC(C)[C@H]([C@H]1C[C@@H](NC(=O)C2(F)CC2)C1)N1CC2(CCN(c3ncnnc3Oc3ccc(F)cc3-c3nnccc3C3CC3)C2)C1 (single isomer, unassigned) [Compound 305]	5.24
9.52	7.25	CC(=O)N[C@H]1C[C@@H]([C@@H](C(C)C)N2CC3(CCN(c4ncnnc4Oc4ccc(F)cc4-c4nncnc4C4CC4)C3)C2)C1 (single isomer, unassigned) [Compound 306]	5.19
9.15	< 6.03	CC(C)[C@H]([C@H]1C[C@@H](NC(=O)C2CC2)C1)N1CC2(CCN(c3ncnnc3Oc3ccc(F)cc3-c3nncn3C3CC3)C2)C1 (single isomer, unassigned) [Compound 307]	< 4.82
9.70	7.15	CC(C)[C@H]([C@H]1C[C@@H](NC(=O)C2CC2)C1)N1CC2(CCN(c3ncnnc3Oc3ccc(F)cc3-n3ncnc3C3CC3)C2)C1 (single isomer, unassigned) [Compound 308]	5.34
9.70	7.66	CC(C)[C@H]([C@H]1C[C@@H](NC(=O)C2CC2)C1)N1CC2(CCN(c3ncnnc3Oc3ccc(F)cc3-c3n[nH]c(=O)cc3C3CC3)C2)C1 (single isomer, unassigned) [Compound 309]	5.13

The remaining lines, values behind:

SMILES	pIC50 [1]	pIC50 (MOLM14 cells)	pIC50 (KO-52 cells)
CC(C)[C@@H]([C@H]1C[C@@H](N2CC[C@@H](F)C2)C1)N1CC2(CCN(c3ncnnc3Oc3ccc(F)cc3-c3nnccc3C3CC3)C2)C1 (single isomer, unassigned) [Compound 262]	10.00	8.30	5.89
COC1(C)CN([C@H]2C[C@H]([C@H](C(C)C)N3CC4(CCN(c5ncnnc5Oc5ccc(F)cc5-c5nnccc5C5CC5)C4)C3)C2)C1 (single isomer, unassigned) [Compound 264]	9.10	6.77	4.84
CC(C)[C@H]([C@H]1C[C@@H](N2CCC3(CCCO3)C2)C1)N1CC2(CCN(c3ncnnc3Oc3ccc(F)cc3-c3nnccc3C3CC3)C2)C1 (single isomer, unassigned) [Compound 271]	8.62	6.59	< 4.82
CC(C)[C@@H]([C@H]1C[C@H](NC2CC2)C1)N1CC2(CCN(c3ncnnc3Oc3ccc(F)cc3-c3nnccc3C3CC3)C2)C1 (single isomer, unassigned) [Compound 273]	9.52	6.96	< 4.82
CC(C)[C@@H]([C@H]1C[C@@H](N2CC(OC3CC3)C2)C1)N1CC2(CCN(c3ncnnc3Oc3ccc(F)cc3-c3nnccc3C3CC3)C2)C1 (single isomer, unassigned) [Compound 274]	10.00	8.70	5.45
CC(C)[C@@H]([C@H]1C[C@H](N2C[C@H]3COC[C@H]3C2)C1)N1CC2(CCN(c3ncnnc3Oc3ccc(F)cc3-c3cnncc3C3CC3)C2)C1 (single isomer, unassigned) [Compound 279]	10.00	7.70	5.22
CC(C)[C@H]([C@H]1C[C@H](N2CCC3(CCO3)CC2)C1)N1CC2(CCN(c3ncnnc3Oc3ccc(F)cc3-c3cnncc3C3CC3)C2)C1 (single isomer, unassigned) [Compound 280b]	8.62	6.13	< 4.82
CO[C@H]1[C@@H]2CN([C@H]3C[C@H]([C@H](C(C)C)N4CC5(CCN(c6ncnnc6Oc6ccc(F)cc6-c6cnncc6C6CC6)C5)C4)C3)C[C@@H]21 (single isomer, unassigned) [Compound 282b]	9.30	6.42	4.94
CC(C)[C@@H]([C@H]1C[C@@H](N2CC[C@H](S(C)(=O)=O)C2)C1)N1CC2(CCN(c3ncnnc3Oc3ccc(F)cc3-c3ncccc3C3CC3)C2)C1 (single isomer, unassigned) [Compound 285]	7.63	< 6.03	< 4.82
CC(C)[C@H]([C@H]1C[C@@H](N2CC[C@H](S(C)(=O)=O)C2)C1)N1CC2(CCN(c3ncnnc3Oc3ccc(F)cc3-c3ncccc3C3CC3)C2)C1 (single isomer, unassigned) [Compound 286]	9.52	6.92	4.91
CC(C)[C@@H]([C@H]1C[C@@H](N2CC[C@@H](S(C)(=O)=O)C2)C1)N1CC2(CCN(c3ncnnc3Oc3ccc(F)cc3-c3ncccc3C3CC3)C2)C1 (single isomer, unassigned) [Compound 287]	7.15	< 6.03	< 4.82
CC(C)[C@H]([C@H]1C[C@@H](N2C[C@H]3C[C@@H]2CO3)C1)N1CC2(CCN(c3ncnnc3Oc3ccc(F)cc3-c3ncccc3C3CC3)C2)C1 (single isomer, unassigned) [Compound 288]	10.00	7.77	4.92
CC(C)[C@@H]([C@H]1C[C@@H](N2CCC3(COC3)C2)C1)N1CC2(CCN(c3ncnnc3Oc3ccc(F)cc3-c3cccnc3C3CC3)C2)C1 (single isomer, unassigned) [Compound 289]	10.00	8.70	6.51
CC(C)[C@@H]([C@H]1C[C@@H](N2C[C@H]3C[C@@H]2CO3)C1)N1CC2(CCN(c3ncnnc3Oc3ccc(F)cc3-c3cccnc3C3CC3)C2)C1 (single isomer, unassigned) [Compound 290]	10.00	8.30	5.97
CC(C)[C@@H]([C@H]1C[C@H](N2C[C@H]3C[C@@H]2CO3)C1)N1CC2(CCN(c3ncnnc3Oc3ccc(F)cc3-c3cccnc3C3CC3)C2)C1 (single isomer, unassigned) [Compound 291]	9.70	7.62	5.97
CC(C)[C@H]([C@H]1C[C@@H](NC(=O)CC2COC2)C1)N1CC2(CCN(c3ncnnc3Oc3ccc(F)cc3-c3cncnc3C3CC3)C2)C1 (single isomer, unassigned) [Compound 296]	9.70	8.00	< 4.82
